Data from US12491187B2, “Use of MCT1 inhibitors to enhance insulin sensitivity” (H. LEE MOFFIT CANCER CENTER AND RESEARCH INSTITUTE, INC., priority 2022, dated 2025).

Assays:
Type in all cases: cell-based, murine
[1] = system: differentiated 3T3-L1 adipocytes; test: Intracellular lactate (Lactate-Glo); conditions: 1 μM
Experimental: Intracellular Lactate: Intracellular lactate was measured using the Lactate-Glo™ Assay Kit (Promega®) according to the manufacturer's instructions. 3T3-L1 cells were seeded and differentiated in white clear bottom 96-well plates (Corning®). After differentiation, cells were treated with compound or vehicle as indicated. Following 15 min, 30 min, 1 hr, 4 hr, 8 hr or 24 hr incubation with […] AZD6965, media was removed, and cells were lysed. Lysates were then subjected to a proprietary enzymatic reaction coupling lactate oxidation and NADH production with a bioluminescent detection system supplied by the Lactate-Glo™ Assay kit, and luminescence was read on a spectrophotometer (FlexStation 3; Molecular Devices). The data generated were normalized by dividing the relative luminescence units (RLU) collected for each experimental condition by the average RLU of vehicle control.

3T3-L1 cells [2] = test: Immunoblotting of adipogenic proteins during differentiation; conditions: differentiated in the presence of 1 μM AZD3965
Experimental: (§1) Differentiation Protocol: The 3T3-L1 differentiation protocol was adapted from Green and Meuth (1974) (Zebisch, K, et al. Anal. Biochem. 2012 425:88-90; Green, H, et al. Cell 1974 3:127-133). Cells were seeded at approximately 80% confluency and allowed to reach confluency prior to induction of differentiation. 1-2 days post confluency, growth media was changed to ‘day 0’ media consisting of media supplemented with 0.5 mM 1-methyl-3-isobutyl xanthine (IBMX), 1 µM dexamethasone, and 10 μg/mL insulin. On ‘day 3’ media was changed to growth media with 10 μg/mL insulin only, and on ‘day 6’ media was replaced with normal growth media. After day 6, the complete media was refreshed every 2 days. Using Oil Red O staining, RT-qPCR and immunoblotting, it was determined that 3T3-L1 cells were fully differentiated into lipid-laden adipocytes by ‘day 8’ of the protocol, as reported by others (Petersen, C, et al. Sci. Rep. 2017 7:13101; Mangum, L H, et al. Toxicol. Lett. 2015 238:65-71). All differentiation experiments were performed on cells between passage 4 and 6 to ensure differentiation efficiency was consistent.
Immunoblotting: For the collection of membrane bound proteins (i.e., MCT1), cells were lysed and the membrane fraction of protein was isolated as previously described (Sadler, J B A, et al. Preparation of a total membrane fraction from 3T3-L1 adipocytes (Cold Spring Harb. Protoc. 2016, 2016, pdb-prot083675). Briefly, cells were lysed with ice cold HES buffer (250 mM sucrose, 20 mM HEPES, 1 mM EDTA, pH7.4) containing a cocktail of protease and phosphatase inhibitors (Roche Diagnostic) and centrifuged for 5 min (500 g at 4° C.) to pellet out nuclei. The remaining supernatant (containing cytosolic and membrane bound proteins) was collected. […] For all samples, protein concentration of the lysates was measured using the BCA Protein Assay Kit (Pierce Biotechnologies). […] Bands were quantified using Image Studio™ (LI-COR Biosciences).

3T3-L1 cells [3] = test: Oil Red O staining of lipid during preadipocyte differentiation; conditions: differentiated in the presence of 1 μM AZD3965, vs control 3T3-L1
Experimental: as §1, with “consistent. Oil Red O Staining: Cells were then fixed with 4% PFA for 10 minutes. […] 10× images of cells were taken from randomized fields of view with the Cytation 5 Cell Imaging Multi-Mode reader (BioTek Instruments). Lipid content was also quantified on the Cytation 5.” for “consistent.”

[4] = system: differentiated 3T3-L1 adipocytes; test: Adipokine antibody array on conditioned media; conditions: 72 hr treatment, media conditioned 24 hr
Experimental: Adipokine Antibody Array: 3T3-L1 cells were differentiated and treated with or without AZD3965 for 72 hr. After this incubation, media was replenished, and adipocytes were cultured for an additional 24 hr to allow for adipokine secretion and media conditioning. Media was collected and analyzed for adipokine secretion with the Proteome Profiler Mouse Adipokine Array Kit (R&D Systems) according to the manufacturer's instructions. Chemiluminescence was detected with the LI-COR Odyssey® XF Imaging System with a 2 minute exposure time. Positive signals were quantified using Image Studio™ (LI-COR Biosciences) to quantify signal intensity. Data presented represent signal intensity normalized by the signal intensity of reference antibodies within the array.

Cc1[nH]nc(C(F)(F)F)c1Cc1sc2c(c1C(=O)N1C[C@](C)(O)CO1)c(=O)n(C)c(=O)n2C(C)C [AZD3965, 5-[[(4S)-4-hydroxy-4-methyl-2-isoxazolidinyl]carbonyl]-3-methyl-1-(1-methylethyl)-6-[[5-methyl-3-(trifluoromethyl)-1H-pyrazol-4-yl]methyl]-thieno[2,3-d]pyrimidine-2,4 (1H, 3H)-dione]
intracellular lactate levels relative to basal ([1]; after 24 hr): approximately 2 fold
intracellular lactate ([1]; within 15 minutes, maintained through first 4 hr): significant increase
FABP4 protein expression during differentiation (3T3-L1 cells [2]): significantly attenuated
HSL protein expression during differentiation (3T3-L1 cells [2]): significantly attenuated
PPARγ protein expression during differentiation (3T3-L1 cells [2]): significantly attenuated
lipid content (Oil Red O staining) over the course of differentiation (3T3-L1 cells [3]): significantly less lipid
adipokine levels in conditioned media [4]: no significant differences
